Among the data in ChEMBL document CHEMBL1148451, “Receptor flexibility in the in silico screening of reagents in the S1' pocket of human collagenase” (J Med Chem, 2004) are IC50 and Ki values, retold here.

The term IC50 denotes the midpoint of a concentration-inhibition curve. Read a low IC50 as inhibition by little substance. The term Ki denotes the dissociation constant of the complex between target and ligand, obtained from inhibition or displacement. High values mean lower affinity, low ones higher affinity.

The target of the assay is T1, Interstitial collagenase (Homo sapiens, UniProt P03956).
T1 sequence (P03956 whole entry): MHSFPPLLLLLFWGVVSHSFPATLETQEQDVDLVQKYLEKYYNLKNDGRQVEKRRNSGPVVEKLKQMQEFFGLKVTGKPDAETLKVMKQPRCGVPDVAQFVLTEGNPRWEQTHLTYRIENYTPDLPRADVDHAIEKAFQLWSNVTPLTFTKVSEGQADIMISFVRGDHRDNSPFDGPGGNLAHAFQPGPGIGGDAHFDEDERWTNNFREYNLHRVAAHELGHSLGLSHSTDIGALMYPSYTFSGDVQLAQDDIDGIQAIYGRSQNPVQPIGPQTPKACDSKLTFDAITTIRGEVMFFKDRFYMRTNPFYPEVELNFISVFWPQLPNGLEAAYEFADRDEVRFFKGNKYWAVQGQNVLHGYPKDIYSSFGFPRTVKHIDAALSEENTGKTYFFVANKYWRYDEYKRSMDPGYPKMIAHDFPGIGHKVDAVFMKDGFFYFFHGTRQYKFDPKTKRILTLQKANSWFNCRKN
The assay is described as follows: Inhibition of human matrix metalloprotease-1.
The compound `Cc1ccc(COc2ccc(S(=O)(=O)N3CCCC(C)(O)C3C(=O)NO)cc2)c(C)c1` (stereo not given) yielded an IC50 of 0.01 µM.

Compound `O=C(CN(Cc1ccc([N+](=O)[O-])cc1)S(=O)(=O)c1ccc(C(F)(F)F)cc1)NO` displayed a Ki of 0.003 µM.

Consider `CNC(=O)C(NC(=O)C(CC(C)C)C(NS(=O)(=O)c1cccc2cccc(=O)n12)C(=O)NO)C(C)(C)C` (stereo not given), for which it took 0.0013 µM to reach half-maximal inhibition (IC50).

The compound `CC#CCOc1ccc(S(=O)(=O)N2CCc3ccccc3C2C(=O)NO)cc1` (stereo not given) gave an IC50 of 0.121 µM.

With `CC(C)C(NS(=O)(=O)N1CCC(Oc2ccc(Cl)cn2)CC1)C(=O)NO` (stereo not given), the IC50 worked out at 0.36 µM.

On to `O=C(CC1(S(=O)(=O)c2ccc(Oc3ccc(Cl)cc3)cc2)CCOCC1)NO`, for which the Ki is 0.07 µM.

Compound `O=C(NO)C1CCCCN1S(=O)(=O)N1CCC(Oc2ccc(-n3ccnc3)cc2)CC1` (stereo not given) came in with a Ki of 0.224 µM.

`O=C(NO)C1CCCCN1S(=O)(=O)N1CCN(c2ccccn2)CC1` (stereo not given) showed a Ki of 0.423 µM.

`CCCCOc1ccc(S(=O)(=O)N2CC(N3CCOCC3)CC2C(=O)NO)cc1` (stereo not given) showed a half-maximal inhibitory concentration (IC50) of 0.92 µM.

The compound `CCOC(=O)[C@H](C)NC(=O)[C@H](CC(C)C)NC(=O)[C@@H](CC(=O)NO)CC(C)C` had an IC50 of 0.04 µM.
